How the values were obtained:
Format in all cases: physicochemical
[1] = Particle size distribution, laser diffraction (Malvern Mastersizer S, wet); conditions: for Particle Size Distribution D50 / Particle Size Distribution D10 / Particle Size Distribution D90: by volume, mean of six; for D[3,2] (Sauter diameter, DMVS): mean diameter by surface area to volume; for Particle Size Distribution D[4,3]: mean diameter by volume
From the text: The particle size parameters measured in the present invention have been obtained by means of laser light diffraction technique, and specifically by means of a Malvern Mastersizer S particle size analyzer having characteristics as set out below. Namely, the laser source used was a 2 milliwatt Helium/neon laser (633 nm wavelength); the detection system was a Fourier Transform lens system; the sample was run using a 2.40 mm lens; the sample unit was a sample unit for wet measurement, and particularly was a MS1-Small volume Sample Dispersion Unit stirred cell. The wet dispersion was prepared by using deionized water as a dispersant, and the dispersion was controlled by stirring the unit cell. […] The characterization parameters (volume distributions) were measured for at least six times for each sample, and the result is a mean of said measured values for each sample.
The sample was run using the 2.40 mm lens. The sample unit was a MS1-Small Volume Sample Dispersion Unit stirred cell. The dispersant was deionized water. The sample particle size distribution was assumed to follow a normal distribution.
Analysis model: polydisperse. Setup presentation: 3_WATERF. Particle R.I.=(1.6800, 0.01). Dispersant R.I.=1.33.
This sample was sonicated for 2 minutes and delivered dropwise to the previously background and corrected measuring cell filled with dispersant (deionized water) until the obscuration reached the desired level. Volume distributions were obtained for at least six measures. For characterization, the values of D10, D50 and D90 (by volume), D[4,3] (mean diameter by volume) and D[3,2] (mean diameter by surface area to volume, or Sauter diameter) were specifically listed, each one being the mean of the six values available for each characterization parameter.
The notation DX [also written as D(v, 0.X)] means that X % of the particles have a diameter less than a specified diameter D. Thus a D90 [or D(v, 0.9)] of 100 μm means that 90% of the particles have a diameter less than 100 μm.

[2] = Particle density by pycnometry; conditions: pycnometry at 25° C., n-heptane, mean of three
Procedure: The particle density experimental values were obtained by means of a pycnometer, specifically a 50 mL glass pycnometer. The measurements were carried out under technical characteristics as set out below. Namely, the determinations were done at 25° C.; the liquid of reference was n-heptane; the measurements were carried out three times, and the result is the mean of said measured values.

[3] = BET specific surface area (Micromeritics Gemini V, N2 at 77 K); conditions: N2 adsorption at 77 K
From the text: The specific surface area values disclosed in the present invention have been obtained by means of a specific surface area analysis technique based on the BET (Brunauer, Emmett and Teller) theory, which is a well-accepted theory known in the art for the calculation of surface areas of solids by means of measuring their physical adsorption of gas molecules (See S. Brunauer, P. H. Emmett and E. Teller, J. Am. Chem. Soc., 1938, 60, 309). In particular, the specific surface area values measured in the present invention have been calculated from the BET surface area plot obtained by measuring the quantity of nitrogen gas molecules adsorbed by a weighted amount of solid at different relative pressures (P/P0) within the range 0.05-0.3, at 77 K. Precisely, the measurement of the adsorption of gas molecules was carried out by means of a Micromeritics™ Gemini V equipment having the characteristics as set out below. Namely, the gas used for adsorption measure was nitrogen gas. […] The sample for analysis was degassed (at 30° C. for 10 minutes and at 80° C. for one hour). The determination of the adsorption of nitrogen was measured at 77 K and for twelve relative pressures sufficiently dispersed within in the range of 0.05 to 0.3. (i.e. twelve absolute pressures in the range of 38.425 mmHg to 230.000 mmHg relative to a saturated pressure of 764,480 mmHg).
The sample for analysis was degassed at 30° C. for 10 minutes and at 80° C. for one hour.

[4] = Sphericity factor calculated from density, Sauter diameter and specific surface area
From the text: Flowability affects the ease with which the material is handled during processing into a pharmaceutical product. When the flowability is poor, problems occur with handling and processing during formulation. It is known that the shape of a particle affects its handling and flow properties. However, quantification of particle shape is extremely difficult for irregular and/or micronized particles. One of the most common ways of expressing the degree of irregularity of the particles is by means of the sphericity factor (ΨW), which is generally defined as the ratio between the surface area of a sphere having the same volume as the particle and the surface area of the particle:
[formula] where dv and ds are the equivalent volume and surface diameter, respectively (Part. Part. Syst. Charact. 1996, 13, 368-373).
Because sphericity factors are not calculated for each particle but for an assembly of particles, they have to be based on an average size. Thus, the sphericity factor will then be given by the following equation:
[formula] where SW is the powder specific surface area, ρ is the particle density and DMVS is the surface area mean diameter, also referred to as the mean volume-surface diameter, the Sauter diameter or D[3,2]. The Sauter diameter is defined as the diameter of a sphere that has the same volume/surface area ratio as the particle of interest.
A sphericity factor of 1.0 describes a perfect sphere with the greatest ease of flow (Encapsulated and powdered foods, CRC Press 2005). […] In this regard, sphericity factor values below 0.2 are usually found for low-flowability solids in form of platelets or needles. Therefore, a sphericity factor greater than 0.2 generally indicates an acceptable flowing material.

[5] = listed as prior art micronized voriconazole
[6] = calculated using the measured particle density value
[7] = calculated using the reported crystal density value

Row | SMILES | Particle Size Distribution D50 [1] [μm] | D[3,2] (Sauter diameter, DMVS) [1] [μm] | D[3,2] (Sauter diameter, DMVS) [1, 5] | Particle Size Distribution D[4,3] [1] [μm] | Density (experimental particle density ρ) [2] [g/mL] | Density (experimental particle density ρ) [2, 5] | Particle Size Distribution D10 [1] [μm] | Particle Size Distribution D90 [1] [μm] | Specific Surface Area (BET), Sw [3] [m^2/g] | sphericity factor Ψw [4, 6] | sphericity factor Ψw [4, 7]
1 | C[C@@H](c1ncncc1F)[C@](O)(Cn1cncn1)c1ccc(F)cc1F [Comparative Example 2, voriconazole, reference compound] | 15.2 | 8.3 | about 8.3 μm | 28.7 | 1.40 | about 1.400 g/cm^3 |  |  |  |  | 
2 | C[C@@H](c1ncncc1F)[C@](O)(Cn1cncn1)c1ccc(F)cc1F [Example 2, voriconazole] | 29.7 | 15.4 |  | 44.5 | 1.35 |  | 7.4 | 102.8 | 0.9319 | 0.31 | 0.29
3 | C[C@@H](c1ncncc1F)[C@](O)(Cn1cncn1)c1ccc(F)cc1F [Example 3, voriconazole] | 21.7 | 12.2 |  | 27.3 | 1.33 |  | 6.0 | 56.2 | 1.0997 | 0.34 | 0.31
4 | C[C@@H](c1ncncc1F)[C@](O)(Cn1cncn1)c1ccc(F)cc1F [Example 4, voriconazole] | 22.4 | 12.3 |  | 30.3 | 1.32 |  | 6.0 | 64.0 | 1.0992 | 0.34 | 0.31
5 | C[C@@H](c1ncncc1F)[C@](O)(Cn1cncn1)c1ccc(F)cc1F [Example 5, voriconazole] | 32.3 | 15.8 |  | 42.8 | 1.37 |  | 7.6 | 92.7 | 1.1451 | 0.24 | 0.23
6 | C[C@@H](c1ncncc1F)[C@](O)(Cn1cncn1)c1ccc(F)cc1F [Example 6, voriconazole] | 33.4 | 17.2 |  | 43.3 | 1.40 |  | 8.6 | 92.3 | 0.9769 | 0.25 | 0.23
7 | C[C@@H](c1ncncc1F)[C@](O)(Cn1cncn1)c1ccc(F)cc1F [Example 7, voriconazole] | 25.3 | 14.3 |  | 24.9 |  |  | 7.5 | 57.4 | 1.1032 |  | 0.26
8 | C[C@@H](c1ncncc1F)[C@](O)(Cn1cncn1)c1ccc(F)cc1F [Example 8, voriconazole] | 7.3 | 5.2 |  | 14.2 |  |  | 2.5 | 29.9 | 1.5910 |  | 0.50

From US8288394B2, “1-(1H-1,2,4-triazol-1-yl)butan-2-ol derivative for pharmaceutical use, and the use of a 1-(1H-1,2,4-triazol-1-yl)butan-2-ol derivative with substantially undefined crystal shape for preparing said 1-(1H-1,2,4-triazol-1-yl)butan-2-ol derivative” (Medichem, S.A., priority 2009, dated 2012)
